Each structure is given as a SMILES string.

One compound from patent US20230277710A1, “SYSTEM AND DEVICE FOR SANITIZING THE AIR” (The Procter & Gamble Company, priority 2022, published 2023) can be followed below.

The test relates to Staphylococcus aureus. Kind of test: Microorganism kill against airborne Staphylococcus aureus, pre and post filtration. Format: cell-based. The note with it: TEG pipetted onto hotplate @ 250° C.

With `OCCOCCOCCO` [TEG, triethylene glycol], the “Microorganism kill against Staphylococcus aureus (log10 reduction)” value (Post-Filtration) was determined as 3 log10 reduction and the “Microorganism kill against Staphylococcus aureus (log10 reduction)” value (Pre-Filtration) was 3 log10 reduction. Moreover, the “Microorganism kill against Staphylococcus aureus, time to 3 log10 reduction” value by setting is: (Post-Filtration) “in 33 min”; (Pre-Filtration) “in 18.2 min”.
